The source of these data is patent US12528815B2, “5-amino-8-(4-pyridyl)-[1,2,4]triazolo[4,3-c]pyrimidin-3-one compounds for use against cancer” (Nxera Pharma UK Limited, priority 2020, dated 2026).

The target of assay [1] is T1, human adenosine A1 receptor (Homo sapiens, UniProt P30542).
T1 construct: expressed in transfected cells; host or cells: HEK293 cells infected with BacMam (the same paragraph also labels the preparation CHO-hA1)
T1 sequence (P30542 1-326): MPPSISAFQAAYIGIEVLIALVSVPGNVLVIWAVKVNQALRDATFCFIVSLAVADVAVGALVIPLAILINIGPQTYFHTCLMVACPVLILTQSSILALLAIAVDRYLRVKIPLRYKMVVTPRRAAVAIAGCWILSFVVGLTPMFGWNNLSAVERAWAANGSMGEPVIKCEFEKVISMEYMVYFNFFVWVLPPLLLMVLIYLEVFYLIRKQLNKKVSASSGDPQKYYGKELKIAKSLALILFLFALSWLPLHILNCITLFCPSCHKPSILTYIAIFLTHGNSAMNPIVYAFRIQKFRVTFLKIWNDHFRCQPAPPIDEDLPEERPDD
As to the kind of experiment: Inhibition binding assay, human adenosine A1 receptor membranes, [3H]DPCPX. The following applies: 1 nM [3H]DPCPX, 25° C., 1 h; IC50 converted to Ki with Cheng-Prusoff; read-out: A1 pKi (converted). In outline:
(§1)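 Membranes from BacMam-infected HEK293 cells (0.2 μg A2A, 1.4 μg A1) incubated 1 h at 25° C with test compound and 1 nM [3H]ZM241385 (A2A; 50 mM Tris-HCl pH 7.4) or [3H]DPCPX (A1; plus 100 mM NaCl, 10 mM MgCl2). Nonspecific: 1 μM CGS15943 or DPCPX. Filtration, scintillation; IC50 converted to Ki via Cheng-Prusoff.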

Assay [2] deals with T2, human adenosine A2A receptor (Homo sapiens, UniProt P29274).
T2 construct: expressed in transfected cells; host or cells: HEK293 cells infected with BacMam
Kind of assay: Inhibition binding assay, human adenosine A2A receptor membranes, [3H]ZM241385. The settings on record: 1 nM [3H]ZM241385, HEK293-hA2A membranes, 25° C., 1 h; IC50 converted to Ki with Cheng-Prusoff; read-out: A2A pKi (converted). In outline: as §1

For assay [3], the target named is T3, human CB-1 cannabinoid receptor (Homo sapiens, UniProt P21554).
T3 construct: expressed in transfected cells; host or cells: CHO cells
As to the kind of experiment: CB1 receptor radioligand binding assay, [3H]CP 55940, transfected CHO cell membranes. The following applies: 0.5 nM [3H]CP 55940, CHO membrane homogenates, 120 min at 37° C. The protocol:
Nonspecific binding is determined in the presence of 10 μM WIN 55212-2.
Following incubation, the samples are filtered rapidly under vacuum through glass fiber filters (GF/B, Packard) presoaked with 0.3% PEI and rinsed several times with an ice-cold buffer containing 50 mM Tris-HCl (pH 7.4) and 0.5% BSA using a 96-sample cell harvester (Unifilter, Packard). The filters are dried then counted for radioactivity in a scintillation counter (Topcount, Packard) using a scintillation cocktail (Microscint 0, Packard).
The standard reference compound is CP 55940 which is tested in each experiment at several concentrations to obtain a competition curve from which its IC50 is calculated.

The next assay concerns the target T4, human CB1 receptor (Homo sapiens, UniProt P21554).
T4 construct: expressed in transfected cells; host or cells: CHO cells
Kind of assay: CB1 receptor antagonism, agonist-induced cAMP modulation (HTRF) in transfected CHO cells. Type of assay: cell-based. The following applies: read-out: Antag IC50. In general terms: Time-resolved FRET reads energy transfer from a long-lived donor to a nearby acceptor.

T2 sequence (P29274 whole entry): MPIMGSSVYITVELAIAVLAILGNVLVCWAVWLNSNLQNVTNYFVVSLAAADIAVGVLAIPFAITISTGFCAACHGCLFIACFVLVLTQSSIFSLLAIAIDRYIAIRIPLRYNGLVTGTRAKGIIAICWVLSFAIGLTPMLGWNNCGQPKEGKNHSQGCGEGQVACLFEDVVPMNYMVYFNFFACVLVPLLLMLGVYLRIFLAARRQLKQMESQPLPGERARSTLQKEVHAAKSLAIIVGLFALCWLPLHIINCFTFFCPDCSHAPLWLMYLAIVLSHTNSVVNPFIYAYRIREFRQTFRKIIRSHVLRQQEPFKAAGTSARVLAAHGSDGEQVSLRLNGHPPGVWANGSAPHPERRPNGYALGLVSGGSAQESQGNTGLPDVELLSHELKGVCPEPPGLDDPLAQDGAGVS
T3 sequence (P21554 whole entry): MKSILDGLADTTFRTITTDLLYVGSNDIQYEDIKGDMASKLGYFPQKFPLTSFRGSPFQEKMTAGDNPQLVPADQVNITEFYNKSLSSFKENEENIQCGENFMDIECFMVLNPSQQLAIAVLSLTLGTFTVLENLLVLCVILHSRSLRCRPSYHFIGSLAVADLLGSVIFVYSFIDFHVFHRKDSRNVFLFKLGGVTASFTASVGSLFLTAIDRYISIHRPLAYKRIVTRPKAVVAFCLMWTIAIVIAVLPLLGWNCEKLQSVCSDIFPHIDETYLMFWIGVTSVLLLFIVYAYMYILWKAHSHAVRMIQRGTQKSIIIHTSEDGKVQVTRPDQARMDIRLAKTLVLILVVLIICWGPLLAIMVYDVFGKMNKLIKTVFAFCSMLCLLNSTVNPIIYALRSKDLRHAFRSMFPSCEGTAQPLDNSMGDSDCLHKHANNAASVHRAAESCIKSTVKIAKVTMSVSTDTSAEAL
T4 sequence (P21554 whole entry): as above

Broadly, the IC50 is the concentration that gives 50% inhibition. For `Cc1cc(-c2c(-c3ccccc3)nc(N)n3c(=O)n(CC4CCOCC4)nc23)cc(C)n1` [Example 2-73, 5-amino-8-(2,6-dimethyl-4-pyridyl)-7-phenyl-2-(tetrahydropyran-4-ylmethyl)-[1,2,4]triazolo[4,3-c]pyrimidin-3-one], the Ki in assay [1] is 1 µM; in assay [2] it was 0.002 µM; in assay [3], 52 µM. In addition, the IC50 at human CB1 receptor is above 100 µM.
